Experimental data published in the supplement of paper PMC10307832.

Each cell line was assayed with COc1cc2nc(N3CCCN(C)CC3)nc(NC3CCN(Cc4ccccc4)CC3)c2cc1OC + C[C@@H](Oc1cc(-c2cnn(C3CCNCC3)c2)cnc1N)c1c(Cl)ccc(F)c1Cl [Crizotinib] (partner 1 µM) (assay: relative viability (nuclei count vs DMSO), 5 days (fraction); higher = more cells survive). Details: first compound 2 µM.
Procedure, shortened: (§1)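 Lung cancer cell lines in 1536-well plates were dosed by pin tool the day after seeding, either with one drug alone or with a fixed anchor-drug dose plus five library-drug doses (not always all listed) in √10 steps. After 5 days, cells were fixed and their nuclei stained in one step (final 0.05% Triton X-100, 1% formaldehyde, 1 ug/ml Hoechst), then counted on 4× images. Relative viability is the nuclei count in treated wells divided by that in vehicle wells. Values are medians of duplicate plates.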

Cell Line | relative viability
NCI-H838 | 0.873
LCLC-103H | 1.14
NCI-H520 | 0.852
NCI-H2126 | 1.08
EMC-BAC-2 | 0.843
NCI-H2085 | 0.859
Calu-6 | 0.814
HCC-366 | 0.644
NCI-H1666 | 0.981
NCI-H596 | 0.988
LK-2 | 0.235
NCI-H2087 | 0.777
SK-MES-1 | 1.04
H3255 | 1.03
COR-L23 | 0.711
COR-L 105 | 0.878

Cell Line | relative viability
IA-LM | 0.926
LOU-NH91 | 0.668
ChaGo-K-1 | 1.14
NCI-H2170 | 1.23
NCI-H2405 | 0.927
HOP-62 | 0.764
HCC-44 | 0.813
A549 | 0.966
LU99A | 0.553
BEN | 0.944
HARA | 1.18
HCC-78 | 0.332
NCI-H322M | 0.973
LCLC-97TM1 | 0.599
NCI-H441 | 0.59
NCI-H1299 | 0.94

Same assay, conditions: first compound 6.325 µM

Cell Line | relative viability
NCI-H727 | 0.592
NCI-H1650 | 0.892
EBC-1 | 0.177
NCI-H1703 | 0.526
NCI-H1993 | 0.834
SW 1573 | 0.819
NCI-H838 | 0.828
LCLC-103H | 1.06
NCI-H520 | 0.214
NCI-H2126 | 0.996
EMC-BAC-2 | 0.824
NCI-H2085 | 0.776
Calu-6 | 0.67
HCC-366 | 0.567
NCI-H1666 | 0.886
NCI-H596 | 0.933
LK-2 | 0.284
NCI-H2087 | 0.716
SK-MES-1 | 1.06

Cell Line | relative viability
H3255 | 0.856
COR-L23 | 0.673
COR-L 105 | 0.455
IA-LM | 0.42
LOU-NH91 | 0.778
ChaGo-K-1 | 1.09
NCI-H2170 | 1.24
NCI-H2405 | 0.894
HOP-62 | 0.943
HCC-44 | 0.819
A549 | 0.736
LU99A | 0.56
BEN | 0.963
HARA | 1.13
HCC-78 | 0.352
NCI-H322M | 0.915
LCLC-97TM1 | 0.313
NCI-H441 | 0.701
NCI-H1299 | 0.909

Each cell line was assayed with COc1cc2nc(N3CCCN(C)CC3)nc(NC3CCN(Cc4ccccc4)CC3)c2cc1OC + C[C@]1(O)C[C@@H](c2nc(-c3ccc4ccc(-c5ccccc5)nc4c3)c3c(N)nccn32)C1 [Linsitinib] (partner 1 µM) in the same assay as above. Details: first compound 0.2 µM.
Procedure, shortened: as §1

Cell Line | relative viability
NCI-H727 | 0.316
EBC-1 | 0.887
NCI-H1703 | 0.593
NCI-H1993 | 0.728
SW 1573 | 0.74
NCI-H838 | 1.07
LCLC-103H | 1.1
NCI-H520 | 1.13
NCI-H2126 | 0.69
